Like-named read-outs stand apart in the source and are kept apart here.
Tests used:
[1] = target: T1, κ1 opioid receptor (Cavia porcellus, UniProt P41144); test: Radioligand binding, kappa sites, displacement of [3H]U69,593 in guinea pig brain membranes
T1 construct: Guinea pig brain membranes were prepared each day using partially thawed guinea pig brain; from tissue; host or cells: guinea pig brain membranes
Description: (§1) Radioligand Binding Assays. Mu binding sites were labeled using [^3H]DAMGO (1–3 nM). Rat membranes were prepared each day using a partially thawed frozen rat brain which was homogenized with a polytron in 10 mL/brain of ice cold 10 mM Tris-HCl, pH 7.0. Membranes were then centrifuged twice at 30,000 g for 10 min and resuspended with ice-cold buffer following each centrifugation. After the second centrifugation, the membranes were resuspended in 50 mM Tris-HCl, pH 7.4 (50 mL/brain) at 25° C. Incubations proceeded for 2 h at 25° C. in 50 mM Tris-HCl, pH 7.4, along with a protease inhibitor cocktail (PIC). The nonspecific binding was determined using 20 μM of levallorphan. Delta binding sites were labeled using [^3]DADLE (2 nM) and rat brain membranes. Rat membranes were prepared each day using a partially thawed frozen rat brain which was homogenized with a polytron in 10 mL/brain of ice cold 10 mM Tris-HCl, pH 7.0. Membranes were then centrifuged twice at 30,000 g for 10 min and resuspended with ice-cold buffer following each centrifugation. After the second centrifugation, the membranes were resuspended in 50 mM Tris-HCl, pH 7.4 (50 mL/brain) at 25° C. Incubations proceeded for 2 h at 25° C. in 50 mM Tris-HCl pH 7.4, containing 100 mM choline chloride, 3 mM MnCl2, and 100 nM DAMGO to block binding to μ sites, and PIC. Nonspecific binding was determined using 20 μM levallorphan. Kappa binding sites were labeled using [^3H]U69,593 (2 nM). Guinea pig brain membranes were prepared each day using partially thawed guinea pig brain which was homogenized with a polytron in 10 mL/brain of ice cold 10 mM Tris-HCl pH 7.0. The membranes were then centrifuged twice at 30,000 g for 10 min and resuspended with ice-cold buffer following each centrifugation. After the second centrifugation, the membranes were resuspended in 50 mM Tris-HCl, pH 7.4 (75 mL/brain) at 25° C. Incubations proceeded for 2 h at 25° C. in 50 mM Tris-HCl, pH 7.4, containing 1 μg/mL of captopril and PIC. Nonspecific binding was determined using 1 μM U69,593. Each ^3H ligand was displaced by 8–10 concentrations of test drug, two times. Compounds were prepared as 1 mM solution with 10 mM Tris buffer (pH 7.4) containing 10% DMSO before drug dilution. All drug dilutions were done at 10 mM Tris-HCl, pH 7.4, containing 1 mg/mL bovine serum albumin. All washes were done with ice-cold 10 mM Tris-HCl, pH 7.4. The IC50 and slope factor (N) were obtained by using the program MLAB-PC (Civilized Software, Bethesda, Md.). Ki values were calculated according to the equation Ki=IC50/(1+[L]/Kd).

[2] = target: δ opioid receptor (Rattus norvegicus, UniProt P33533); test: Radioligand binding, delta sites, displacement of [3H]DADLE in rat brain membranes; parameters: Rat membranes were prepared each day using a partially thawed frozen rat brain; from tissue; host or cells: rat brain membranes; conditions: for Selectivity Ratio κ1δ / Selectivity Ratio μ/δ: ratio of Ki values
Description: as §1

[3] = target: T2, δ opioid receptor (DPDPE) in MVD (Mus musculus, UniProt P32300); test: Antagonist activity against DPDPE in electrically stimulated mouse vas deferens (MVD); assay type: cell-based; conditions: for antagonist activity DPDPE (δ) MVD IC50 ratio: 1 μM compound, 30 min incubation, IC50 of DPDPE with antagonist divided by control IC50; for Ke selectivity ratio μδ: Ke GPI (μ) over Ke MVD (δ)
T2 construct: Electrically-induced smooth muscle contractions of mouse vas deferens and strips of guinea pig ileum longitudinal muscle myenteric plexus were used; from tissue; host or cells: mouse vas deferens (male ICR mice)
Description: (§2) Bioassays in GPI and MVD smooth muscle preparations. Electrically-induced smooth muscle contractions of mouse vas deferens and strips of guinea pig ileum longitudinal muscle myenteric plexus were used. Tissues came from maile ICR mice weighing 25–40 g and male Hartley guinea pigs weighing 250–500 g. The tissues were tied to gold chain with suture silk, suspended in 20 mL baths containing 37° C. oxygenated (95% O2, 5% CO2) Krebs bicarbonate solution (magnesium free for the MVD), and allowed to equilibrate for 15 min. The tissues were then stretched to optimal length previously determined to be 1 g tension (0.5 g for MVD) and allowed to equilibrate for 15 min. The tissues were stimulated transmurally between platinum wire electrodes at 0.1 Hz, 0.4 ms pulses (2-ms pulses for MVD), and supramaximal voltage. An initial dose-response curve of DPDPE or PL-017 was constructed at the start of each assay to establish tissue effects, allowing each tissue to be used as its own control.
(§3) Tissues not producing typical results were not used. Experimental compounds were added to the baths in 14–60 μL volumes. Succeeding doses of argonist were added cumulatively to the bath at 3 minute intervals to produce a concentration-response curve. The tissues were then washed extensively with fresh buffer until the original contraction height was re-established. […] Antagonist effects to DPDPE and PL-017 were assayed after incubation of the tissues with 1 μM concentration of the compound in the bath for 30 minutes. The tissues were then washed with fresh buffer for 30 min, and the agonist dose-response curve was repeated. Rightward shifts in the dose-response curves were calculated by dividing the antagonized dose-response curve IC50 value by the unantagoniced IC50 value. IC50 values represent the mean of two to four tissues. IC50 estimates and their associated standard errors were determined by using a computerized nonlinear least-squares method.

[4] = tested on: guinea pig ileum longitudinal muscle myenteric plexus; test: Agonist activity in GPI smooth muscle preparation, inhibition of contraction; assay type: cell-based; conditions: for inhibition at 1 µM: Cavia porcellus, read-out: agonist activity GPI IC50 (nM) or % max resp
Description: as §2, §3

[5] = target: T3, μ opioid receptor (Rattus norvegicus, UniProt P33535); test: Radioligand binding, mu sites, displacement of [3H]DAMGO in rat brain membranes
T3 construct: Rat membranes were prepared each day using a partially thawed frozen rat brain; from tissue; host or cells: rat brain membranes
Description: as §1

[6] = tested on: mouse vas deferens; test: Agonist activity in MVD smooth muscle preparation, inhibition of contraction; assay type: cell-based; conditions: read-out: agonist activity MVD IC50 (nM) or % max resp
Description: as §2, §3

[7] = tested on: μ opioid receptor (PL017) in GPI; test: Antagonist activity against PL-017 in electrically stimulated guinea pig ileum (GPI); assay type: cell-based; conditions: for antagonist activity PL017 (μ) GPI IC50 ratio: 1 μM compound, 30 min incubation, IC50 of PL-017 with antagonist divided by control IC50; for antagonist activity PL017 (μ) GPI Ke: Ke = [antagonist]/(IC50 ratio − 1), PL-017 as agonist, n = 3
Description: as §2, §3

[8] = pyridomorphinans, [3H]U69,593 (1.2–2.2 nm), guinea pig brain membranes, read-out: Ki (nM) ± SEM κ1
[9] = pyridomorphinans, [3H]DAMGO (1.4–2.0 nM), rat brain membranes, read-out: Ki (nM) ± SEM μ

T1 sequence (P41144 whole entry): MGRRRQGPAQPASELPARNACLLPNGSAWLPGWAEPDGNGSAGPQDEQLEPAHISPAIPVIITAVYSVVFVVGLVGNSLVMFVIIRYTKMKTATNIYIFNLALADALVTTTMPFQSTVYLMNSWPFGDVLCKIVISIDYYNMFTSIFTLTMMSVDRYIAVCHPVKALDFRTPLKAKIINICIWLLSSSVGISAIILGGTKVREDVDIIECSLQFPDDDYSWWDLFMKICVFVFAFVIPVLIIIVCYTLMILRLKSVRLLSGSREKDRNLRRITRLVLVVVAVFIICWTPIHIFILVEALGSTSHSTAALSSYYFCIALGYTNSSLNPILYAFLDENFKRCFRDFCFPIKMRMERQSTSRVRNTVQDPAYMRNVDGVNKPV
T3 sequence (P33535 whole entry): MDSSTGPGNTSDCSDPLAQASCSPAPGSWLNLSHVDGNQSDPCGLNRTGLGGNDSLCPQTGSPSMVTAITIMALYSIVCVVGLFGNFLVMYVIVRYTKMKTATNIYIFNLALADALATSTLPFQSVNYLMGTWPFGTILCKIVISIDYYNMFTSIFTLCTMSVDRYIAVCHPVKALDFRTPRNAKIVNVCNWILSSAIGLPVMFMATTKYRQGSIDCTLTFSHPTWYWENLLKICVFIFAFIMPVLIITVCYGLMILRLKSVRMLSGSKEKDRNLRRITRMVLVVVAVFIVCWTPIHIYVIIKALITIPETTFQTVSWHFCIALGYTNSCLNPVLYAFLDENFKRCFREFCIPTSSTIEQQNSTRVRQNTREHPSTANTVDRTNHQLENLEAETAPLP
Sequence of δ opioid receptor (P33533 whole entry): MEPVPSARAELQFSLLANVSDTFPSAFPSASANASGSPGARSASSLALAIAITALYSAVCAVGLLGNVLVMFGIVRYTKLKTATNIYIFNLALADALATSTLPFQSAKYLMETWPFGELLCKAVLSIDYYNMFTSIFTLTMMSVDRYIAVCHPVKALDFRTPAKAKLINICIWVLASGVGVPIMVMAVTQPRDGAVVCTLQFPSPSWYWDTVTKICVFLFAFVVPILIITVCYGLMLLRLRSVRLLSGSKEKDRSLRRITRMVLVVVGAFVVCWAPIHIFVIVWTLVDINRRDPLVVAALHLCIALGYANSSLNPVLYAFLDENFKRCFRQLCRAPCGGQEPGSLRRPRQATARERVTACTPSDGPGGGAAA
T2 sequence (P32300 whole entry): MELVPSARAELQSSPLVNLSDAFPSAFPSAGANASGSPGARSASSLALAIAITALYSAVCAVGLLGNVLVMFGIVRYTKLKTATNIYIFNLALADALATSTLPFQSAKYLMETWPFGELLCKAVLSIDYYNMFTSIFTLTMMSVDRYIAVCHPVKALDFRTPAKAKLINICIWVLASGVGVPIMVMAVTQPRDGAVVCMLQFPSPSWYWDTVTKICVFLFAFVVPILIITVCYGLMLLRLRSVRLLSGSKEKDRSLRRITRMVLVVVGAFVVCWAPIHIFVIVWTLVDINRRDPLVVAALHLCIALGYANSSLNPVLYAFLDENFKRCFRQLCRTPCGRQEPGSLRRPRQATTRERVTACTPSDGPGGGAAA

Compound	Ki [1]	Ki [2]	Selectivity Ratio κ1δ ([2]; pyridomorphinans)	Selectivity Ratio μ/δ ([2]; pyridomorphinans)	Kb [3]	antagonist activity DPDPE (δ) MVD IC50 ratio [3]	Ke selectivity ratio μδ [3]	inhibition at 1 µM [4]	Ki [5]	inhibition at 1 µM [6]	antagonist activity PL017 (μ) GPI IC50 ratio [7]	antagonist activity PL017 (μ) GPI Ke [7]	Selectivity Ratio κ1δ ([2]; thienomorphinans)	Selectivity Ratio μ/δ ([2]; thienomorphinans)	agonist activity GPI IC50 (nM) or % max resp ([4]; percentage inhibition of contraction at 1 μM)	Ki [1, 8]	Ki ([2]; pyridomorphinans, [3H]DADLE (1.3–2.0 nM), rat brain membranes, 100 nM DAMGO to block μ-sites, read-out: Ki (nM) ± SEM δ)	Ki [5, 9]
O=[N+]([O-])c1cnc2c(c1)CC1(O)C3Cc4ccc(O)c5c4C1(CCN3CC1CC1)C2O5 (stereo not drawn) [Compound 7e, 17-(Cyclopropylmethyl)-6,7-didehydro-3,14-dihydroxy-4,5α-epoxy-5′-nitropyrido[2′,3′:6,7]morphinan]	92 ± 12.8 nM	5.5 ± 0.67 nM	17	3.2	51 nM	20.7 ± 4.2	5.3	0%	17.5 ± 2 nM	14%	4.7 ± 0.59	271 nM	–	–	–	–	–	–
Nc1sc2c(c1C(=O)OCc1ccccc1)[C@@H]1Oc3c(O)ccc4c3[C@@]13CCN(CC1CC1)[C@H](C4)[C@]3(O)C2 [Compound 8d, 5′-Amino-4′-benzyloxycarbonyl-17-(cyclopropylmethyl)-6,7-didehydro-3,14-dihydroxy-4,5α-epoxythieno[2′,3′:7,6]morphinan]	48 ± 3 nM	7 ± 0.3 nM	–	–	5 nM	289 ± 13	–	40%	61 ± 3 nM	11%	–	–	6.9	8.7	40%	–	–	–
Nc1sc2c(c1C(=O)c1ccccc1)[C@@H]1Oc3c(O)ccc4c3[C@@]13CCN(CC1CC1)[C@H](C4)[C@]3(O)C2 [Compound 8f, 5′-Amino-4′-benzoyl-17-(cyclopropylmethyl)-6,7-didehydro-3,14-dihydroxy-4,5α-epoxythieno[2′,3′:7,6]morphinan]	14 ± 0.7 nM	14 ± 0.7 nM	–	–	46 nM	24.4 ± 4.0	1.3	25%	50 ± 3 nM	15%	21.6 ± 7.7	62 nM	1.0	3.6	–	–	–	–
Nc1cnc2c(c1)C[C@@]1(O)[C@H]3Cc4ccc(O)c5c4[C@@]1(CCN3CC1CC1)[C@H]2O5 [Compound 7f, 5′-Amino-17-(cyclopropylmethyl)-6,7-didehydro-3,14-dihydroxy-4,5α-epoxypyrido[2′,3′:6,7]morphinan]	–	–	1.5	1.6	26 nM	43.3 ± 9.0	1.9	0%	–	6%	23.4 ± 4.8	49 nM	–	–	–	12 ± 1.2 nM	8 ± 0.3 nM	12.8 ± 0.93 nM
N#Cc1c(N)sc2c1[C@@H]1Oc3c(O)ccc4c3[C@@]13CCN(CC1CC1)[C@H](C4)[C@]3(O)C2 [Compound 8a, 5′-Amino-4′-cyano-17-(cyclopropylmethyl)-6,7-didehydro-3,14-dihydroxy-4,5α-epoxythieno [2′,3′:7,6]morphinan]	1.5 ± 0.12 nM	2.6 ± 0.11 nM	–	–	9.6 nM	109.6 ± 12.1	0.9	0%	5.5 ± 0.2 nM	0%	160.3 ± 41.6	8.7 nM	0.6	2.1	–	–	–	–
COC(=O)c1c(N)sc2c1[C@@H]1Oc3c(O)ccc4c3[C@@]13CCN(CC1CC1)[C@H](C4)[C@]3(O)C2 [Compound 8b, 5′-Amino-4′-carbomethoxy-17-(cyclopropylmethyl)-6,7-didehydro-3,14-dihydroxy-4,5α-epoxythieno[2′,3′:7,6]morphinan]	8.7 ± 0.34 nM	6.6 ± 0.3 nM	–	–	21 nM	53.5 ± 10.1	1.7	0%	29 ± 4 nM	0%	39.1 ± 11.6	35 nM	1.3	4.4	–	–	–	–
NC(=O)c1c(N)sc2c1[C@@H]1Oc3c(O)ccc4c3[C@@]13CCN(CC1CC1)[C@H](C4)[C@]3(O)C2 [Compound 8e, 5′-Amino-4′-aminocarbonyl-17-(cyclopropylmethyl)-6,7-didehydro-3,14-dihydroxy-4,5α-epoxythieno[2′,3′:7,6]morphinan]	2 ± 0.2 nM	3.7 ± 0.2 nM	–	–	10 nM	118.6 ± 38.4	2.4	4%	21 ± 1.3 nM	5%	47.8 ± 10.7	24 nM	0.5	5.7	–	–	–	–
CCOC(=O)c1cnc2c(c1)C[C@@]1(O)[C@H]3Cc4ccc(O)c5c4[C@@]1(CCN3CC1CC1)[C@H]2O5 [Compound 7d, 5′-Carbethoxy-17-(cyclopropylmethyl)-6,7-didehydro-3,14-dihydroxy-4,5α-epoxypyrido[2′,3′:6,7]morphinan]	–	–	–	–	20 nM	–	–	0%	–	0%	–	74 nM	–	–	–	9.6 ± 0.93 nM	–	37 ± 3.4 nM

From patent publication US7105675B2, “Pyridomorphinans, thienomorphinans and use thereof” (Southern Research Institute, priority 1999, dated 2006)
